Test results as given in PubChem BioAssay AID1963977 (Molecular Pharmacology Branch, DTP, NCI, 2024).

Tested on: 624824-186-R-J3-PDC multicell spheroids, viability
Assay: Anticancer human tumor 624824-186-R-J3-PDC patient-derived colon adenocarcinoma cell line growth inhibition [PI3K]
Conditions: for IC50: curve of first compound; for viability, T/C: stronger effect = lower value
Outline: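 Combination activity was assessed by viability in multicellular tumor spheroids carrying HUVEC and MSC components. Agents were tested with PI3K inhibitors from a Cmax-based top dose (or 10 microM) downward in half-log increments.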

[1] = second compound 0.0316 µM, first compound 0.0316 µM
[2] = second compound 0.0316 µM, first compound 0.1 µM
[3] = second compound 0.0316 µM, first compound 0.316 µM
[4] = second compound 0.0316 µM, first compound 1 µM
[5] = second compound 0.0316 µM, first compound 3.16 µM
[6] = second compound 0.0316 µM, first compound 10 µM
[7] = second compound 0.1 µM, first compound 0.0316 µM
[8] = second compound 0.1 µM, first compound 0.1 µM
[9] = second compound 0.1 µM, first compound 0.316 µM
[10] = second compound 0.1 µM, first compound 1 µM
[11] = second compound 0.1 µM, first compound 3.16 µM
[12] = second compound 0.1 µM, first compound 10 µM
[13] = second compound 0.316 µM, first compound 0.0316 µM
[14] = second compound 0.316 µM, first compound 0.1 µM
[15] = second compound 0.316 µM, first compound 0.316 µM
[16] = second compound 0.316 µM, first compound 1 µM
[17] = second compound 0.316 µM, first compound 3.16 µM
[18] = second compound 0.316 µM, first compound 10 µM
[19] = second compound 1 µM, first compound 0.0316 µM
[20] = second compound 1 µM, first compound 0.1 µM
[21] = second compound 1 µM, first compound 0.316 µM
[22] = second compound 1 µM, first compound 1 µM
[23] = second compound 1 µM, first compound 3.16 µM
[24] = second compound 1 µM, first compound 10 µM
[25] = second compound 3.16 µM, first compound 0.0316 µM
[26] = second compound 3.16 µM, first compound 0.1 µM
[27] = second compound 3.16 µM, first compound 0.316 µM
[28] = second compound 3.16 µM, first compound 1 µM
[29] = second compound 3.16 µM, first compound 3.16 µM
[30] = second compound 3.16 µM, first compound 10 µM
[31] = second compound 10 µM, first compound 0.0316 µM
[32] = second compound 10 µM, first compound 0.1 µM
[33] = second compound 10 µM, first compound 0.316 µM
[34] = second compound 10 µM, first compound 1 µM
[35] = second compound 10 µM, first compound 3.16 µM
[36] = second compound 10 µM, first compound 10 µM
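Note: spheroids exposed to agents for seven days before luminescence read.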
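Throughout, for viability, T/C: luminescent signal used as a stand-in for spheroid viability; percent viability relative to DMSO vehicle control wells taken as 100%.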

Compound: C#Cc1c(F)ccc2cc(O)cc(-c3ncc4c(N5CC6CCC(C5)N6)nc(OCC56CCCN5CC(F)C6)nc4c3F)c12 (centres undefined) + Cc1nc(NC(=O)N2CCCC2C(N)=O)sc1-c1ccnc(C(C)(C)C(F)(F)F)c1
- IC50 (second compound 0.0316 µM): > 10 µM
- IC50 (second compound 0.1 µM): > 10 µM
- IC50 (second compound 0.316 µM): > 10 µM
- IC50 (second compound 1 µM): > 10 µM
- IC50 (second compound 3.16 µM): > 10 µM
- IC50 (second compound 10 µM): > 10 µM
- viability, T/C [1]: 108%
- viability, T/C [2]: 97%
- viability, T/C [3]: 121%
- viability, T/C [4]: 102%
- viability, T/C [5]: 108%
- viability, T/C [6]: 100%
- viability, T/C [7]: 111%
- viability, T/C [8]: 98.2%
- viability, T/C [9]: 94.9%
- viability, T/C [10]: 103%
- viability, T/C [11]: 116%
- viability, T/C [12]: 102%
- viability, T/C [13]: 103%
- viability, T/C [14]: 102%
- viability, T/C [15]: 108%
- viability, T/C [16]: 101%
- viability, T/C [17]: 112%
- viability, T/C [18]: 108%
- viability, T/C [19]: 100%
- viability, T/C [20]: 97.4%
- viability, T/C [21]: 114%
- viability, T/C [22]: 100%
- viability, T/C [23]: 112%
- viability, T/C [24]: 107%
- viability, T/C [25]: 88.9%
- viability, T/C [26]: 88.2%
- viability, T/C [27]: 83%
- viability, T/C [28]: 85.2%
- viability, T/C [29]: 98.2%
- viability, T/C [30]: 80.4%
- viability, T/C [31]: 71.4%
- viability, T/C [32]: 70.9%
- viability, T/C [33]: 68.9%
- viability, T/C [34]: 64.6%
- viability, T/C [35]: 58.8%
- viability, T/C [36]: 54.3%

Compound: C=CC(=O)N1CCN(c2nc(=O)n(-c3c(C)ccnc3C(C)C)c3nc(-c4c(O)cccc4F)c(F)cc23)C(C)C1 (centres undefined) + Cc1nc(NC(=O)N2CCCC2C(N)=O)sc1-c1ccnc(C(C)(C)C(F)(F)F)c1
- IC50 (second compound 0.0316 µM): > 10 µM
- IC50 (second compound 0.1 µM): > 10 µM
- IC50 (second compound 0.316 µM): > 10 µM
- IC50 (second compound 1 µM): > 10 µM
- IC50 (second compound 3.16 µM): > 10 µM
- IC50 (second compound 10 µM): > 10 µM
- viability, T/C [1]: 103%
- viability, T/C [2]: 108%
- viability, T/C [3]: 106%
- viability, T/C [4]: 94%
- viability, T/C [5]: 107%
- viability, T/C [6]: 113%
- viability, T/C [7]: 112%
- viability, T/C [8]: 101%
- viability, T/C [9]: 95.5%
- viability, T/C [10]: 110%
- viability, T/C [11]: 113%
- viability, T/C [12]: 105%
- viability, T/C [13]: 109%
- viability, T/C [14]: 109%
- viability, T/C [15]: 116%
- viability, T/C [16]: 106%
- viability, T/C [17]: 103%
- viability, T/C [18]: 103%
- viability, T/C [19]: 103%
- viability, T/C [20]: 108%
- viability, T/C [21]: 104%
- viability, T/C [22]: 116%
- viability, T/C [23]: 105%
- viability, T/C [24]: 101%
- viability, T/C [25]: 83.6%
- viability, T/C [26]: 92.8%
- viability, T/C [27]: 90.9%
- viability, T/C [28]: 78.7%
- viability, T/C [29]: 95.6%
- viability, T/C [30]: 78.5%
- viability, T/C [31]: 68.4%
- viability, T/C [32]: 69%
- viability, T/C [33]: 71.2%
- viability, T/C [34]: 76.1%
- viability, T/C [35]: 69.8%
- viability, T/C [36]: 65.3%
